Data on 13 compounds can be found in patent US7585875B2, “Substituted pyrazolo[1,5-a]pyridine compounds and their methods of use” (Avigen, Inc., priority 2006, dated 2009).

Where two headings read alike, the source gives them in different places.

The target in data set [1] is phosphodiesterase (PDE) enzyme derived from bovine brain. Put plainly: Inhibition of PDE (PDELight kit, cAMP substrate). It counts as biochemical. Conditions: PDE from brain extract, cAMP as substrate. The procedure: In a 96-well plate, phosphodiesterase (PDE) enzyme (0.5-1 mU/well) derived from bovine brain (Sigma) was combined with 5 uM cAMP substrate (Sigma). Test compounds (0-200 uM) or vehicle (0.5% DMSO) were added to the enzyme/substrate and incubated for 1 hour. Using a PDELight® kit (Cambrex), the amount of AMP produced in the reaction from the hydrolysis of cAMP was quantified using PDELight AMP Detection Reagent which converts the AMP directly to ATP. The assay uses luciferase, which catalyses the formation of light from the newly formed ATP and luciferin. The luminescence was read on a Victor Light 1420 luminometer. IC50 calculations were plotted using a nonlinear regression curve fit.

The test system of data set [2] is mechanical allodynia after chronic constriction injury (CCI) to the sciatic nerve. Kind of data set: Mechanical allodynia by response to von Frey fibers, rat chronic constriction injury (CCI) model. The format is in vivo, male Sprague-Dawley rats. Conditions: 10 mg/kg IP, 2 hr post dosing. In short, it runs like this:
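Male Sprague-Dawley rats with unilateral CCI (four loose ligatures around the right sciatic nerve; left side sham). 50% paw withdrawal threshold to von Frey filaments was measured blinded before and 2 h after a single i.p. dose (n=5-6). Value is the change from pre-dosing baseline.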

In data set [3] the test system is TNF-α production in LPS-stimulated human peripheral blood mononuclear cells. Kind of data set: Inhibition of LPS-stimulated TNF-α release from PBMCs. It counts as cell-based. As to conditions: PBMC. The procedure:
(§1) IC50 values were determined for representative compounds of the invention based upon their ability to inhibit LPS-induced cytokine production in human peripheral blood mononuclear cells. Human PBMCs (peripheral blood mononuclear cells) were isolated over a Ficoll gradient from buffy coats obtained from the local Red Cross. 10^6 PBMC cells/well were seeded in 24-well tissue culture plates in RPMI 1640 medium supplemented with 10% human serum, hepes buffer and sodium pyruvate. The cells were treated with 0.1% DMSO (vehicle) or test compounds (1, 10, and 100 uM) 30 minutes prior to activation with LPS (lipopolysaccharide) (E. Coli) at 10 ng/mL. 6-10 hours post LPS stimulation the culture supernatants were collected and levels of cytokines TNF-α and IL-1β were quantified by ELISA (R&D Systems) and/or Luminex (Linco Diagnostics). IC50 calculations were plotted using a nonlinear regression curve fit for exemplary substituted pyrazolo[1,5-a]pyridine compounds of the invention; results are provided in Table 2.

Data set [4] deals with IL-1β production in LPS-stimulated human peripheral blood mononuclear cells. Put plainly: Inhibition of LPS-stimulated IL-1β release from PBMCs. It counts as cell-based. As to conditions: PBMC, LPS-stimulated cytokine release from PBMCs. The procedure: as §1
Where [5] appears, read: LPS-stimulated cytokine release from PBMCs, read-out: TNF-α (IC50).
Setting [6] is: less than or equal to about 50 μM, PBMCs, read-out: IC50, LPS-induced cytokine production (cytokine not specified).

As a reminder, the IC50 is the concentration needed to halve the response being measured. The melting point is the temperature of the solid-liquid transition. As for `CC(C)c1nn2ccccc2c1C(O)C(C)C` (stereo not drawn) [Compound 1002, 1-(2-isopropylpyrazolo[1,5-a]pyridin-3-yl)-2-methylpropan-1-ol], the melting point was 69 °C. The IC50 in data set [1] is greater than 200 µM. Also, in data set [2], the “Mechanical Allodynia ΔWT (change from pre-dosing 50% withdrawal threshold)” value worked out at 0.79 grams. The IC50 in data set [3] (setting [5]) was greater than 100 µM. Further, the IC50 in data set [4] is greater than 100 µM.
Turning to `CC(CNCc1ccccc1)C(=O)c1c(C(C)C)nn2ccccc12.Cl` (stereo not drawn) [compound 1066, 3-(benzylamino)-1-(2-isopropylpyrazolo[1,5-a]pyridin-3-yl)-2-methylpropan-1-one hydrochloride], the melting point is 171 to 175 °C. Besides, the “Mechanical Allodynia ΔWT (change from pre-dosing 50% withdrawal threshold)” value in data set [2] was 0.1 grams.
Taken in the same sequence, the figures for `CC(C)C(=O)c1c(C2CC2)nn2ccccc12` [compound 1050, 1-(2-cyclopropylpyrazolo[1,5-a]pyridin-3-yl)-2-methylpropan-1-one] were 108 to 109 °C and 0 grams.
Compound `CC(C)C(=O)c1c(-c2ccc(F)cc2)nn2cc(C(F)(F)F)ccc12` [Compound 1027, 1-(2-(4-fluorophenyl)-6-(trifluoromethyl)pyrazolo[1,5-a]pyridin-3-yl)-2-methylpropan-1-one] came in with a melting point of 129 to 130 °C. The compound further returned a 50% inhibitory concentration (IC50) in data set [1] greater than 200 µM. Besides, in data set [2], the “Mechanical Allodynia ΔWT (change from pre-dosing 50% withdrawal threshold)” value stood at 0 grams.
Consider `CC(C)C(=NO)c1c(-c2ccccc2)nn2ccccc12` [Compound 1016, 2-methyl-1-(2-phenylpyrazolo[1,5-a]pyridin-3-yl)propan-1-one oxime], for which the IC50 was 75 µM in data set [1], greater than 100 µM in data set [3] (setting [5]) and greater than 100 µM in data set [4]. In data set [2], the “Mechanical Allodynia ΔWT (change from pre-dosing 50% withdrawal threshold)” value is 0 grams.
As to `CC(C)C(=O)c1c(C(C)C)nn2ccccc12` [compound 411, 3-isobutyryl-2-isopropylpyrazolo[1,5-a]pyridine, reference compound], the IC50 in data set [1] came to 10.3 µM; in data set [3] (setting [5]), 5 µM; in data set [4] it was 17.9 µM. The “Mechanical Allodynia ΔWT (change from pre-dosing 50% withdrawal threshold)” value in data set [2] is 2.31-3.53 grams.
Turning to `CC(C)c1nn2ccccc2c1C(=O)C1CC1` [Compound 1046, cyclopropyl(2-isopropylpyrazolo[1,5-a]pyridin-3-yl)methanone], the melting point amounted to 72 °C. Half-maximal inhibition in data set [1] (IC50) was put at 33.3 µM. In addition, in data set [2], the “Mechanical Allodynia ΔWT (change from pre-dosing 50% withdrawal threshold)” value is 0 grams.
On to `CC(C)C(=O)c1c(-c2ccc(F)cc2)nn2ccccc12` [Compound 1018, 1-(2-(4-fluorophenyl)pyrazolo[1,5-a]pyridin-3-yl)-2-methylpropan-1-one], for which the IC50 in data set [1] is greater than 200 µM; in data set [3] (setting [5]) it was 32.7 µM; in data set [3] (setting [6]) it was no more than 50 µM; in data set [4], greater than 100 µM. Also, the “Mechanical Allodynia ΔWT (change from pre-dosing 50% withdrawal threshold)” value in data set [2] came out at 0 grams.
As to `CCC(=O)c1c(C(C)C)nn2ccccc12` [Compound 1001, 1-(2-isopropylpyrazolo[1,5-a]pyridin-3-yl)propan-1-one], the melting point lay in the range of 41 to 43 °C. In data set [1], the IC50 was 58 µM. In addition, the “Mechanical Allodynia ΔWT (change from pre-dosing 50% withdrawal threshold)” value in data set [2] is 0 grams. Further, in data set [3] (setting [5]), the IC50 was 13 µM. The IC50 in data set [3] (setting [6]) is no more than 50 µM. The compound also had an IC50 in data set [4] greater than 100 µM.
Consider `CC(CN)C(=O)c1c(C(C)C)nn2ccccc12.Cl` (stereo not drawn) [compound 1065, 3-amino-1-(2-isopropylpyrazolo[1,5-a]pyridin-3-yl)-2-methylpropan-1-one hydrochloride], for which the melting point was in the range of 110 to 115 °C. In data set [2], the “Mechanical Allodynia ΔWT (change from pre-dosing 50% withdrawal threshold)” value worked out at 0.91 grams.
For `CC(C)C(=O)c1c(-c2ccccc2)nn2ccccc12` [Compound 1015, 2-methyl-1-(2-phenylpyrazolo[1,5-a]pyridin-3-yl)propan-1-one], the IC50 in data set [1] was 80 µM; in data set [3] (setting [5]), greater than 100 µM; in data set [4], greater than 100 µM. Besides, the “Mechanical Allodynia ΔWT (change from pre-dosing 50% withdrawal threshold)” value in data set [2] was determined as 0.51 grams.
In the case of `CC(CN1CCCCC1)C(=O)c1c(C(C)C)nn2ccccc12.Cl` (stereo not drawn) [compound 1063, 1-(2-isopropylpyrazolo[1,5-a]pyridin-3-yl)-2-methyl-3-(piperidin-1-yl)propan-1-one hydrochloride], the melting point was in the range of 166 to 167 °C. Besides, in data set [2], the “Mechanical Allodynia ΔWT (change from pre-dosing 50% withdrawal threshold)” value was determined as 0 grams.
Turning to `O=C(c1c(C2CC2)nn2ccccc12)C1CC1` [Compound 1047, cyclopropyl(2-cyclopropylpyrazolo[1,5-a]pyridin-3-yl)methanone], the melting point fell in the range of 102 to 104 °C. Also, 15.4 µM corresponded to half-maximal inhibition in data set [1] (IC50). Also, in data set [2], the “Mechanical Allodynia ΔWT (change from pre-dosing 50% withdrawal threshold)” value stood at 0.68 grams.
